Assay results reported in patent US4935415A, “UCN-01 and process for production thereof” (priority 1986, dated 1990).
≈ marks a conversion by molar mass, not a printed value.

Assays:
[1] = system: lymphocytic leukemia P388 tumor; assay: Therapeutic effect on lymphocytic leukemia P388 tumor; type: in vivo, male CDF1 mice
Procedure: Therapeutic effect on lymphocytic leukemia P388 tumor:
Five male CDF1 mice each having a weight of about 22 g were used for each group as test animals, and 1×10^6 cells of lymphocytic leukemia P388 tumor were implanted intraperitoneally in the test animals. 24 hours after implantation, 0.2 ml of a phosphate buffer saline (hereafter referred to as PBS) containing UCN-01 was intraperitoneally administered.
The composition of PBS was 0.8% NaCl, 0.02% KCl, 1.15% Na2 HPO4, […] 0.02% KH2 PO4 (pH 7.0).
For comparison, 0.2 ml of PBS solution containing Staurosporine was intraperitoneally administered 24 hours after the implantation of the tumor cells. Increased life span (T/C) (T: mean survival days of the treated group, C: mean survival days of the control group) is shown in Table 5.

[2] = LD50 of Staurosporine (note to Table 5); details: in vivo; species and route not printed in the note
[3] = Acute toxicity (LD50), intraperitoneal administration to mice; details: mouse, in vivo, ip
Procedure: The acute toxicity value (LD50) was 30 mg/kg by intraperitoneal administration to mice.

[4] = system: Staphylococcus aureus ATCC 6538P; assay: Anti-bacterial activity, agar dilution method (MIC); type: cell-based; details: ATCC6538P, pH 7
Procedure: (§1) The minimum inhibitory concentration (MIC) against various microorganisms is shown below.
(§2) The anti-bacterial activity was measured by the agar dilution method, using a medium (pH 7) prepared by dissolving 3 g of Bacto-Tryptone (manufacturedby Difco Co., Ltd.), 3 g of meat extract, 1 g of yeast extract, 1 g of glucose and 16 g of agar in 1 (of water.

[5] = system: Klebsiella pneumoniae ATCC 10031; assay: as above; type: cell-based; details: ATCC10031, pH 7
Procedure: as §1, §2

Escherichia coli ATCC 26 = assay: as above; type: cell-based; details: ATCC26, pH 7
Procedure: as §1, §2

[6] = system: Bacillus subtilis No. 10707; assay: as above; type: cell-based; details: pH 7
Procedure: as §1, §2

[7] = system: Salmonella typhi ATCC 9992; assay: as above; type: cell-based; details: Salmonella enterica, pH 7
Procedure: as §1, §2

[8] = system: Shigella sonnei ATCC 9290; assay: as above; type: cell-based; details: ATCC9290, pH 7
Procedure: as §1, §2

| SMILES | Increased Life Span (T/C) ([1]; 1 mg/kg, intraperitoneal, 24 hours after implantation) | Increased Life Span (T/C) ([1]; 2 mg/kg, intraperitoneal, 24 hours after implantation) | Increased Life Span (T/C) ([1]; 4 mg/kg, intraperitoneal, 24 hours after implantation) | LD50 [2] [mg/kg] | Increased Life Span (T/C) ([1]; 7.5 mg/kg, intraperitoneal, 24 hours after implantation) | Increased Life Span (T/C) ([1]; 15 mg/kg, intraperitoneal, 24 hours after implantation) | Increased Life Span (T/C): toxic ([1]; 30 mg/kg, intraperitoneal, 24 hours after implantation) | anti-tumor activity as compared with staurosporine ([1]; comparison with staurosporine, in words) | LD50 [3] [mg/kg] | MIC [4] [µg/mL] | MIC [5] [µg/mL] | MIC (Escherichia coli ATCC 26) [µg/mL] | MIC [6] [µg/mL] | MIC [7] [µg/mL] | MIC [8] [µg/mL] |
| --- | --- | --- | --- | --- | --- | --- | --- | --- | --- | --- | --- | --- | --- | --- | --- |
| CN[C@@H]1C[C@H]2O[C@@](C)([C@@H]1OC)n1c3ccccc3c3c4c(c5c6ccccc6n2c5c31)C(=O)NC4 [Staurosporine, reference compound] | 1.10 | 1.12 | 1.08 | 6.6 | – | – | – | – | – | – | – | – | – | – | – |
| CNC1CC2OC(C)(C1OC)n1c3ccccc3c3c4c(c5c6ccccc6n2c5c31)C(=O)NC4O (stereo not drawn) [UCN-01] | – | – | – | – | 1.12 | 1.24 | toxic | superior anti-tumor activity | 30 | 83 (≈ 172 µM) | 83 (≈ 172 µM) | 83 (≈ 172 µM) | > 100 | 83 (≈ 172 µM) | 100 (≈ 207 µM) |
